According to patent publication US7456225B1, “Liver protection compounds of the cyclohexenone type from Antrodia camphorata” (Golden Biotechnology Corporation, priority 2007, dated 2008):
Marks after values point to notes of the source that are not given here.

Key:
[1] = Body weights of rats in CCl4 liver injury model; type: in vivo, Sprague-Dawley (SD) rats; conditions: CCl4-treated rats, stomach tube, 8th week
Experimental: The animal model was performed with five-week-old Sprague-Dawley (SD) rats purchased from BioLasco Taiwan Co., Ltd. Healthy rats weighing 220-270 g were chosen for experiment after observing for 2 weeks in the laboratory animal room. The rats were randomly divided into 6 groups (12 rats/group): normal (gp. A); control groups including model control (gp. B) and positive control (gp. C, animals receiving silymarin); treatment groups including animals receiving 300 mg/kg of cyclohexenone (gp. D), 1000 mg/kg of cyclohexenone (gp. E), and 3000 mg/kg of cyclohexenone (gp. F), as indicated in Table 1. Only normal group was not poisoned with CCl4. The body weights were recorded to calculate the dosage. […] It helps to remove toxins from liver cells by either neutralizing the toxicity of toxic compounds or competing with the binding sites in liver. It is a potent antioxidant, protects the liver from free radicals. It has been widely studied for treating various types of liver injury in animals and clinical trials. The beneficial effects on liver protection have made silymarin a good medicine for liver diseases and a drug in positive control group for the animal model of liver injury. Rats in normal group (group A) were fed with corn oil (Sigma chemical co.) by means of stomach tubes. Carbon tetrachloride (Shimakyu, Osaka, Japan) was administered to groups B to F via stomach tubes twice weekly (every Tuesday and Thursday afternoon) for 8 weeks, at a dose of 2 ml/kg of body weight, diluted with corn oil. Silymarin was prepared with saline in an amount of 200 mg/kg of body weight and was fed to rats of group C via a stomach tube. Cyclohexenone prepared from example 1 was mixed with saline, and fed in the amounts of 300 mg/kg, 1000 mg/kg and 3000 mg/kg of body weight to rats of group D to F via stomach tubes. The total feeding volume was estimated in the ratio of 10 ml/kg of body weight to groups C to F five days a week (every morning) for 8 weeks. The body weights of rats and the amounts of food intake in rats for each group were shown in FIG. 1 and FIG. 2, respectively. […]

[2] = system: CCl4 treated, liver injury model animals; experiment: Antioxidant enzymes in liver (GSH, GSHPx, catalase, SOD); type: in vivo, Sprague-Dawley (SD) rats; conditions: CCl4-treated rats, 8 weeks
Experimental: The animal model was performed with five-week-old Sprague-Dawley (SD) rats purchased from BioLasco Taiwan Co., Ltd. Healthy rats weighing 220-270 g were chosen for experiment after observing for 2 weeks in the laboratory animal room. The rats were randomly divided into 6 groups (12 rats/group): normal (gp. A); control groups including model control (gp. B) and positive control (gp. C, animals receiving silymarin); treatment groups including animals receiving 300 mg/kg of cyclohexenone (gp. D), 1000 mg/kg of cyclohexenone (gp. E), and 3000 mg/kg of cyclohexenone (gp. F), as indicated in Table 1. Only normal group was not poisoned with CCl4. The body weights were recorded to calculate the dosage. […] It helps to remove toxins from liver cells by either neutralizing the toxicity of toxic compounds or competing with the binding sites in liver. It is a potent antioxidant, protects the liver from free radicals. It has been widely studied for treating various types of liver injury in animals and clinical trials. The beneficial effects on liver protection have made silymarin a good medicine for liver diseases and a drug in positive control group for the animal model of liver injury.
Rats in normal group (group A) were fed with corn oil (Sigma chemical co.) by means of stomach tubes. Carbon tetrachloride (Shimakyu, Osaka, Japan) was administered to groups B to F via stomach tubes twice weekly (every Tuesday and Thursday afternoon) for 8 weeks, at a dose of 2 ml/kg of body weight, diluted with corn oil. Silymarin was prepared with saline in an amount of 200 mg/kg of body weight and was fed to rats of group C via a stomach tube. Cyclohexenone prepared from example 1 was mixed with saline, and fed in the amounts of 300 mg/kg, 1000 mg/kg and 3000 mg/kg of body weight to rats of group D to F via stomach tubes. The total feeding volume was estimated in the ratio of 10 ml/kg of body weight to groups C to F five days a week (every morning) for 8 weeks. The body weights of rats and the amounts of food intake in rats for each group were shown in FIG. 1 and FIG. 2, respectively.
The liver stored at −80° C. as described above was immersed in PBS buffer (phosphate buffered saline solution, pH 7.4) containing 0.16 mg/ml heparin. Red blood cells were removed from the tissue. Liver was prepared as 1.0 g tissue/10 mL buffer homogenates in fresh, chilled 50 mM phosphate, 1 mM EDTA (pH 6-7) buffer using a Polytron homogenizer (setting 5, PT 10 probe, Brinkmann Instruments, Westbury, N.Y.) for one min. The solution was centrifuged at 10,000×g for 15 min at 4° C. Protein concentration was determined with a BCA protein assay kit (Pierce, Ill., USA) at 550 nm using an enzyme linked immunosorbent assay (ELISA) reader (MAX ELISA Reader, Quant, Bio-Tek Instrument, Vermont, USA). Commercial kits of glutathione (GSH), glutathione peroxidase (GSHPx), catalase (CAT), superoxide dismutase (SOD) (Glutathione Assay Kit, Cat No. 703002; Glutathione Peroxidase Assay Kit, Cat No. 703102; Catalase Assay Kit, Cat No. 707002; Superoxide Dismutase Assay Kit, Cat No. 706002) were purchased from Cayman Chemical Company (MI.USA) and assayed by reading at 405 nm, 340 nm, 540 nm and 450 nm using an ELISA reader. Deprotein step was carried out for all the assays mention above except SOD assay. Proteins were precipitated by mixing with equal volume of 10% metaphosphoric acid (w/v), vortex-mixed evenly, centrifuged at 2,000×g for 2 min. The supernatant was removed for enzyme assay. All values are expressed as mean ±SD, which were evaluated using One-way Analysis of Variance. Those with significant differences were further tested with the Least Significant Difference Test (LSD) or Student t-test to compare cyclohexenone treatment groups and normal groups, positive control and model groups. P<0.05 was selected as criterion for statistical significance in all cases.

**Q.** Which results are given for `COC1=C(OC)C(O)C(C/C=C(\C)CC/C=C(\C)CCC=C(C)C)C(C)C1=O` (stereo not drawn) [Cyclohexenone from Antrodia camphorata, 4-hydroxy-2,3-dimethoxy-6-methyl-5(3,7,11-trimethyl-dodeca-2,6,10-trienyl)-cyclohex-2-enone]?
**A.** body weight ([1]; cyclohexenone 300 mg/kg): 386.6 g; body weight ([1]; cyclohexenone 1000 mg/kg): 365.1 g; body weight ([1]; cyclohexenone 3000 mg/kg): 355.0 g; Catalase ([2]; cyclohexenone 300 mg/kg): 9.1 ± 1.0 U/mg protein; GSH (Glutathione activity) ([2]; cyclohexenone 300 mg/kg): 30.3 ± 3.2 uM/mg protein; GSHPx (glutathione peroxidase activity) ([2]; cyclohexenone 300 mg/kg): 9.6 ± 1.7 nmol/min/mL; SOD ([2]; cyclohexenone 300 mg/kg): 0.47 U/mg protein; Catalase ([2]; cyclohexenone 1000 mg/kg): 10.1 ± 1.4 U/mg protein; GSH (Glutathione activity) ([2]; cyclohexenone 1000 mg/kg): 25.2 ± 1.8*^a uM/mg protein; GSHPx (glutathione peroxidase activity) ([2]; cyclohexenone 1000 mg/kg): 11.2 ± 3.4 nmol/min/mL; SOD ([2]; cyclohexenone 1000 mg/kg): 0.52 ± 0.28 U/mg protein; Catalase ([2]; cyclohexenone 3000 mg/kg): 9.8 ± 0.9 U/mg protein; GSH (Glutathione activity) ([2]; cyclohexenone 3000 mg/kg): 26.7 ± 4.3*^a uM/mg protein; GSHPx (glutathione peroxidase activity) ([2]; cyclohexenone 3000 mg/kg): 10.6 ± 3.1 nmol/min/mL; SOD ([2]; cyclohexenone 3000 mg/kg): 0.73 ± 0.23 U/mg protein
